Source: patent publication US11541055B2, “Inhibitors of human immunodeficiency virus replication” (ViiV Healthcare UK (No. 5) LIMITED, priority 2018, dated 2023)

Tests used:
[1] = test system: recombinant NL4-3 virus (Renilla luciferase) in MT-2 cells; assay: HIV cell culture assay (antiviral activity, luciferase readout); type: cell-based; settings: Renilla, NL43
Experimental: HIV cell culture assay—MT-2 cells, 293T cells and the proviral DNA clone of NL4-3 virus were obtained from the NIH AIDS Research and Reference Reagent Program. MT-2 cells were propagated in RPMI 1640 media supplemented with 10% heat inactivated fetal bovine serum (FBS), […]. The 293T cells were propagated in DMEM media supplemented with 10% heat inactivated FBS, […] penicillin G and […] streptomycin. A recombinant NL40.3 proviral clone, in which a section of the nef gene was replaced with the Renilla luciferase gene, was used to make the reference virus used in these studies. The recombinant virus was prepared through transfection of the recombinant NL4-3 proviral clone into 293T cells using Transit-293 Transfection Reagent from Minis Bio LLC (Madison, Wis.). Supernatent was harvested after 2-3 days and the amount of virus present was titered in MT-2 cells using luciferase enzyme activity as a marker by measuring luciferase enzyme activity. Luciferase was quantitated using the EnduRen Live Cell Substrate from Promega (Madison, Wis.). Antiviral activities of compounds toward the recombinant virus were quantified by measuring luciferase activity in MT-2 cells infected for 4-5 days with the recombinant virus in the presence of serial dilutions of the compound.
The 50% effective concentration (EC50) was calculated by using the exponential form of the median effect equation where (Fa)=1/[1+(ED50/drug conc.)m] (Johnson V A, Byington R T. Infectivity Assay. In Techniques in HIV Research. ed. Aldovini A, Walker B D. 71-76. New York: Stockton Press. 1990). The 50% inhibitory concentration (EC50) was calculated by using the exponential form of the median effect equation where percent inhibition=1/[1+(EC50/drug concentration)m], where m is a parameter that reflects the slope of the concentration-response curve.

[2] = Compound cytotoxicity, XTT-based colorimetric assay; type: cell-based; settings: human; uninfected MT2 cells, day 4, XTT
Experimental: Compound cytotoxicity and the corresponding CC50 values were determined using the same protocol as described in the antiviral assay except that uninfected cells were used. Cytotoxicity was assessed on day 4 in uninfected MT2 cells by using a XTT (2,3-bis[2-Methoxy-4-nitro-5-sulfophenyl]-2H-tetrazolium-5-carboxyanilide inner salt)-based colorimetric assay (Sigma-Aldrich, St Louis, Mo.).

## CCc1cc(-c2ccc3c(=O)n(-c4ccc(Cl)c5c(NS(=O)(=O)C6CC6)nn(CC(F)F)c45)c([C@H](Cc4cc(F)cc(F)c4)NC(=O)Cn4nc(C(F)F)c5c4C(F)(F)[C@@H]4C[C@H]54)nc3c2)nc(C)n1 (atropisomer, axis not shown; (P)) [Example 94, N—((S)-1-((3P)-3-(4-chloro-3-(cyclopropanesulfonamido)-1-(2,2-difluoroethyl)-1H-indazol-7-yl)-7-(6-ethyl-2-methylpyrimidin-4-yl)-4-oxo-3,4-dihydroquinazolin-2-yl)-2-(3,5-difluorophenyl)ethyl)-2-((3bS,4aR)-3-(difluoromethyl)-5,5-difluoro-3b,4,4a,5-tetrahydro-1H-cyclopropa[3,4]cyclopenta[1,2-c]pyrazol-1-yl)acetamide]
[1]
  EC50: 0.13 nM
[2]
  CC50 at 4 days: > 500 nM

## COc1ncc(-c2ccc3c(=O)n(-c4ccc(Cl)c5c(NS(C)(=O)=O)nn(CC(F)(F)F)c45)c([C@H](Cc4cc(F)cc(F)c4)NC(=O)Cn4nc(C(F)F)c5c4C(F)(F)[C@@H]4C[C@H]54)nc3c2)cn1 (atropisomer, axis not shown) [Example 116, N-[(1S)-1-{3-[4-chloro-3-methanesulfonamido-1-(2,2,2-trifluoroethyl)-1H-indazol-7-yl]-7-(2-methoxypyrimidin-5-yl)-4-oxo-3,4-dihydroquinazolin-2-yl}-2-(3,5-difluorophenyl)ethyl]-2-[(2S,4R)-9-(difluoromethyl)-5,5-difluoro-7,8-diazatricyclo[4.3.0.0^2,^4]nona-1(6),8-dien-7-yl]acetamide]
[1]
  EC50: 0.072 nM
[2]
  CC50 at 4 days: > 500 nM

## Cc1nc(C)c(-c2ccc3c(=O)n(-c4ccc(Cl)c5c(NS(C)(=O)=O)nn(C)c45)c([C@H](Cc4cc(F)cc(F)c4)NC(=O)Cn4nc(C(F)F)c5c4C(F)(F)[C@@H]4C[C@H]54)nc3c2)s1 (atropisomer, axis not shown; (P)) [Example 6, N—((S)-1-((3P)-3-(4-chloro-1-methyl-3-(methylsulfonamido)-1H-indazol-7-yl)-7-(2,4-dimethylthiazol-5-yl)-4-oxo-3,4-dihydroquinazolin-2-yl)-2-(3,5-difluorophenyl)ethyl)-2-((3bS,4aR)-3-(difluoromethyl)-5,5-difluoro-3b,4,4a,5-tetrahydro-1H-cyclopropa[3,4]cyclopenta[1,2-c]pyrazol-1-yl)acetamide]
[1]
  EC50: 0.12 nM
[2]
  CC50 at 4 days: > 500 nM

## CN(c1ccccc1-c1ccc2c(=O)n(-c3ccc(Cl)c4c(NS(=O)(=O)C5CC5)nn(CC(F)F)c34)c([C@H](Cc3cc(F)cc(F)c3)NC(=O)Cn3nc(C(F)F)c4c3C(F)(F)[C@@H]3C[C@H]43)nc2c1)S(C)(=O)=O (atropisomer, axis not shown) [Example 144]
[1]
  EC50: 0.18 nM
[2]
  CC50 at 4 days: > 500 nM

## Cn1nc(NS(C)(=O)=O)c2c(Cl)ccc(-n3c([C@H](Cc4cc(F)cc(F)c4)NC(=O)Cn4nc(C(F)F)c5c4C(F)(F)[C@@H]4C[C@H]54)nc4cc(-c5ncccc5F)ccc4c3=O)c21 (atropisomer, axis not shown; (P)) [Example 21, N—((S)-1-((3P)-3-(4-chloro-1-methyl-3-(methylsulfonamido)-1H-indazol-7-yl)-7-(3-fluoropyridin-2-yl)-4-oxo-3,4-dihydroquinazolin-2-yl)-2-(3,5-difluorophenyl)ethyl)-2-((3bS,4aR)-3-(difluoromethyl)-5,5-difluoro-3b,4,4a,5-tetrahydro-1H-cyclopropa[3,4]cyclopenta[1,2-c]pyrazol-1-yl)acetamide]
[1]
  EC50: 0.091 nM
[2]
  CC50 at 4 days: > 500 nM

## Cc1ccnc(-c2ccc3c(=O)n(-c4ccc(Cl)c5c(NS(C)(=O)=O)nn(C)c45)c([C@H](Cc4cc(F)cc(F)c4)NC(=O)Cn4nc(C(F)F)c5c4C(F)(F)[C@@H]4C[C@H]54)nc3c2)c1 (atropisomer, axis not shown; (P)) [Example 2, N—((S)-1-((3P)-3-(4-chloro-1-methyl-3-(methylsulfonamido)-1H-indazol-7-yl)-7-(4-methylpyridin-2-yl)-4-oxo-3,4-dihydroquinazolin-2-yl)-2-(3,5-difluorophenyl)ethyl)-2-((3bS,4aR)-3-(difluoromethyl)-5,5-difluoro-3b,4,4a,5-tetrahydro-1H-cyclopropa[3,4]cyclopenta[1,2-c]pyrazol-1-yl)acetamide]
[1]
  EC50: 0.059 nM
[2]
  CC50 at 4 days: > 500 nM

## Cc1ccc(-c2ccc3c(=O)n(-c4ccc(Cl)c5c(NS(C)(=O)=O)nn(C)c45)c([C@H](Cc4cc(F)cc(F)c4)NC(=O)Cn4nc(C(F)F)c5c4C(F)(F)[C@@H]4C[C@H]54)nc3c2)nn1 (atropisomer, axis not shown; (P)) [Example 50, N—((S)-1-((3P)-3-(4-chloro-1-methyl-3-(methylsulfonamido)-1H-indazol-7-yl)-7-(6-methylpyridazin-3-yl)-4-oxo-3,4-dihydroquinazolin-2-yl)-2-(3,5-difluorophenyl)ethyl)-2-((3bS,4aR)-3-(difluoromethyl)-5,5-difluoro-3b,4,4a,5-tetrahydro-1H-cyclopropa[3,4]cyclopenta[1,2-c]pyrazol-1-yl)acetamide]
[1]
  EC50: 0.047 nM
[2]
  CC50 at 4 days: > 500 nM

## Cc1ncc(-c2ccc3c(=O)n(-c4ccc(Cl)c5c(NS(C)(=O)=O)nn(C)c45)c([C@H](Cc4cc(F)cc(F)c4)NC(=O)Cn4nc(C(F)F)c5c4C(F)(F)[C@@H]4C[C@H]54)nc3c2)s1 (atropisomer, axis not shown; (P)) [Example 26, N—((S)-1-((3P)-3-(4-chloro-1-methyl-3-(methylsulfonamido)-1H-indazol-7-yl)-7-(2-methylthiazol-5-yl)-4-oxo-3,4-dihydroquinazolin-2-yl)-2-(3,5-difluorophenyl)ethyl)-2-((3bS,4aR)-3-(difluoromethyl)-5,5-difluoro-3b,4,4a,5-tetrahydro-1H-cyclopropa[3,4]cyclopenta[1,2-c]pyrazol-1-yl)acetamide]
[1]
  EC50: 0.11 nM
[2]
  CC50 at 4 days: > 500 nM

## CCc1cc(-c2ccc3c(=O)n(-c4ccc(Cl)c5c(NS(C)(=O)=O)nn(C)c45)c([C@H](Cc4cc(F)cc(F)c4)NC(=O)Cn4nc(C(F)F)c5c4C(F)(F)[C@@H]4C[C@H]54)nc3c2)nc(C)n1 (atropisomer, axis not shown; (P)) [Example 62, N—((S)-1-((3P)-3-(4-chloro-1-methyl-3-(methylsulfonamido)-1H-indazol-7-yl)-7-(6-ethyl-2-methylpyrimidin-4-yl)-4-oxo-3,4-dihydroquinazolin-2-yl)-2-(3,5-difluorophenyl)ethyl)-2-((3bS,4aR)-3-(difluoromethyl)-5,5-difluoro-3b,4,4a,5-tetrahydro-1H-cyclopropa[3,4]cyclopenta[1,2-c]pyrazol-1-yl)acetamide]
[1]
  EC50: 0.11 nM
[2]
  CC50 at 4 days: > 500 nM

## CS(=O)(=O)Nc1nn(CC(F)F)c2c(-n3c([C@H](Cc4cc(F)cc(F)c4)NC(=O)Cn4nc(C(F)F)c5c4C(F)(F)[C@@H]4C[C@H]54)nc4cc(-c5nccc(C(F)(F)F)n5)ccc4c3=O)ccc(Cl)c12 (atropisomer, axis not shown) [Example 128, N-[(1S)-1-{3-[4-chloro-1-(2,2-difluoroethyl)-3-methanesulfonamido-1H-indazol-7-yl]-4-oxo-7-[4-(trifluoromethyl)pyrimidin-2-yl]-3,4-dihydroquinazolin-2-yl}-2-(3,5-difluorophenyl)ethyl]-2-[(2S,4R)-9-(difluoromethyl)-5,5-difluoro-7,8-diazatricyclo[4.3.0.0^2,^4]nona-1(6),8-dien-7-yl]acetamide]
[1]
  EC50: 0.079 nM
[2]
  CC50 at 4 days: > 500 nM

## COc1cnc(-c2ccc3c(=O)n(-c4ccc(Cl)c5c(NS(=O)(=O)C6CC6)nn(CC(F)F)c45)c([C@H](Cc4cc(F)cc(F)c4)NC(=O)Cn4nc(C(F)F)c5c4C(F)(F)[C@@H]4C[C@H]54)nc3c2)nc1 (atropisomer, axis not shown) [Example 98, N-[(1S)-1-{3-[4-chloro-3-cyclopropanesulfonamido-1-(2,2-difluoroethyl)-1H-indazol-7-yl]-7-(5-methoxypyrimidin-2-y1)-4-oxo-3,4-dihydroquinazolin-2-yl}-2-(3,5-difluorophenyl)ethyl]-2-[(2S,4R)-9-(difluoromethyl)-5,5-difluoro-7,8-diazatricyclo[4.3.0.0^2,^4]nona-1(6),8-dien-7-yl]acetamide]
[1]
  EC50: 0.16 nM
[2]
  CC50 at 4 days: > 500 nM

## CC(C)(C)S(=O)(=O)c1cccc(-c2ccc3c(=O)n(-c4ccc(Cl)c5c(NS(C)(=O)=O)nn(CC(F)F)c45)c([C@H](Cc4cc(F)cc(F)c4)NC(=O)Cn4nc(C(F)F)c5c4C(F)(F)[C@@H]4C[C@H]54)nc3c2)c1 (atropisomer, axis not shown) [Example 127]
[1]
  EC50: 0.14 nM
[2]
  CC50 at 4 days: > 500 nM
